Test results published in PubChem BioAssay (NCI).
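All cell lines were grown in 96-well plates and treated with compound for 48 hours. GI50: concentration for 50% inhibition of growth. TGI denotes the concentration required for complete inhibition of growth.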

Key:
Assay in all cases: NCI-60 cell line screen, 48 h
[1] = system: NCI-H522 lung
[2] = system: HS 578T breast
[3] = system: KM12 colon
[4] = system: M14 melanoma
[5] = system: NCI-H226 lung
[6] = system: PC-3 prostate
[7] = system: OVCAR-5 ovarian
[8] = system: T-47D breast
[9] = system: U251 CNS
[10] = system: SR leukemia
[11] = system: UACC-257 melanoma
[12] = system: TK-10 renal
[13] = system: HCT-116 colon
[14] = system: NCI-H23 lung
[15] = system: HOP-62 NSCLC
[16] = system: UO-31 renal
[17] = system: ACHN renal
[18] = system: SF-295 CNS
[19] = system: OVCAR-4 ovarian
[20] = system: MDA-MB-435
[21] = system: A549 NSCLC
[22] = system: HCT-15 colon
[23] = system: LOX IMVI melanoma
[24] = system: SW-620 colon
[25] = system: 786-0 renal
[26] = system: COLO 205 colon
[27] = system: MOLT-4 leukemia
[28] = system: HL-60(TB) leukemia
[29] = system: UACC-62 melanoma
[30] = system: SF-268 CNS
[31] = system: HT29 colon
[32] = system: RXF 393 renal
[33] = system: NCI/ADR-RES ovarian
[34] = system: SK-MEL-2 melanoma
[35] = system: MDA-MB-231 breast
[36] = system: MALME-3M melanoma
[37] = system: RPMI-8226 leukemia
[38] = system: CAKI-1 renal
[39] = system: CCRF-CEM leukemia
[40] = system: OVCAR-8 ovarian
[41] = system: SK-OV-3 ovarian
[42] = system: A498 renal
[43] = system: K-562 leukemia
[44] = system: EKVX NSCLC
[45] = system: SK-MEL-28 melanoma
[46] = system: SNB-19 CNS
[47] = system: SF-539 CNS
[48] = system: MCF7 breast
[49] = system: OVCAR-3 ovarian
[50] = system: HOP-92 NSCLC
[51] = system: HCC-2998 colon
[52] = system: SK-MEL-5 melanoma
[53] = system: BT-549 breast
[54] = system: NCI-H460 lung
[55] = system: IGROV1 ovarian
[56] = system: DU-145 prostate
[57] = system: SN12C renal
[58] = system: SNB-75 CNS

Compound: COc1cc2c(cc1Nc1nc(Nc3ccsc3C(N)=O)c3cc[nH]c3n1)N(C(=O)CN(C)C)CCC2(C)C
- GI50 [1]: 0.764 µM
- TGI [1]: 3.76 µM
- GI50 [2]: 1.11 µM
- TGI [2]: 5.13 µM
- GI50 [3]: 0.647 µM
- TGI [3]: 2.61 µM
- GI50 [4]: 1.43 µM
- TGI [4]: 5.68 µM
- GI50 [5]: 0.763 µM
- TGI [5]: 4.92 µM
- GI50 [6]: 2.55 µM
- TGI [6]: 7.01 µM
- GI50 [7]: 0.0412 µM
- TGI [7]: 3.67 µM
- GI50 [8]: 3.08 µM
- TGI [8]: 7.11 µM
- GI50 [9]: 3.09 µM
- TGI [9]: 6.25 µM
- GI50 [10]: 0.00596 µM
- TGI [10]: 4.6 µM
- GI50 [11]: 0.0753 µM
- TGI [11]: 4.34 µM
- GI50 [12]: 1.36 µM
- TGI [12]: 4.97 µM
- GI50 [13]: 1.05 µM
- TGI [13]: 4.8 µM
- GI50 [14]: 0.791 µM
- TGI [14]: 5.15 µM
- GI50 [15]: 1.65 µM
- TGI [15]: 5.3 µM
- GI50 [16]: 1.09 µM
- TGI [16]: 4.69 µM
- GI50 [17]: 2.56 µM
- TGI [17]: 5.53 µM
- GI50 [18]: 3.33 µM
- TGI [18]: 7.39 µM
- GI50 [19]: 3.02 µM
- TGI [19]: 6.59 µM
- GI50 [20]: 0.299 µM
- TGI [20]: 2.49 µM
- GI50 [21]: 0.975 µM
- TGI [21]: 4.69 µM
- GI50 [22]: 1.84 µM
- TGI [22]: 5.62 µM
- GI50 [23]: 1.99 µM
- TGI [23]: 6.08 µM
- GI50 [24]: 0.357 µM
- TGI [24]: 4.1 µM
- GI50 [25]: 3.06 µM
- TGI [25]: 6.82 µM
- GI50 [26]: < 0.0025 µM
- TGI [26]: 0.887 µM
- GI50 [27]: 1.9 µM
- TGI [27]: 8.91 µM
- GI50 [28]: < 0.0025 µM
- TGI [28]: 2.04 µM
- GI50 [29]: 1.77 µM
- TGI [29]: 5.44 µM
- GI50 [30]: 2.6 µM
- TGI [30]: 5.75 µM
- GI50 [31]: < 0.0025 µM
- TGI [31]: 2.53 µM
- GI50 [32]: 1.67 µM
- TGI [32]: 5.09 µM
- GI50 [33]: 2.01 µM
- TGI [33]: 8.49 µM
- GI50 [34]: 0.515 µM
- TGI [34]: 3.63 µM
- GI50 [35]: 3.22 µM
- TGI [35]: 7.42 µM
- GI50 [36]: 1.48 µM
- TGI [36]: 5.62 µM
- GI50 [37]: 1.09 µM
- TGI [37]: 5.21 µM
- GI50 [38]: 1.37 µM
- TGI [38]: 6.69 µM
- GI50 [39]: 0.685 µM
- TGI [39]: 3.78 µM
- GI50 [40]: 1.64 µM
- TGI [40]: 5.69 µM
- GI50 [41]: 3.64 µM
- TGI [41]: 6.94 µM
- GI50 [42]: 1.18 µM
- TGI [42]: 4.97 µM
- GI50 [43]: 1.75 µM
- TGI [43]: 6.47 µM
- GI50 [44]: 0.453 µM
- TGI [44]: 4.97 µM
- GI50 [45]: 3.06 µM
- TGI [45]: 6.41 µM
- GI50 [46]: 3.62 µM
- TGI [46]: 7.1 µM
- GI50 [47]: 3.35 µM
- TGI [47]: 7.05 µM
- GI50 [48]: < 0.0025 µM
- TGI [48]: 2.97 µM
- GI50 [49]: 2.05 µM
- TGI [49]: 5.17 µM
- GI50 [50]: < 0.0025 µM
- TGI [50]: 0.833 µM
- GI50 [51]: 0.485 µM
- TGI [51]: 4.47 µM
- GI50 [52]: 0.797 µM
- TGI [52]: 3.89 µM
- GI50 [53]: 2.01 µM
- TGI [53]: 5.6 µM
- GI50 [54]: 0.889 µM
- TGI [54]: 5.3 µM
- GI50 [55]: 3.23 µM
- TGI [55]: 7.31 µM
- GI50 [56]: 2.88 µM
- TGI [56]: 5.96 µM
- GI50 [57]: 3.13 µM
- TGI [57]: 7.18 µM
- GI50 [58]: 2.7 µM
- TGI [58]: 5.9 µM
